Assay results taken from publication PMC8868518, “Exploring Titanium(IV) Complexes as Potential Antimicrobial Compounds” (Antibiotics, 2022).
Like-named read-outs stand apart in the source and are kept apart here.

Legend:
E. coli (ATCC 25922) = assay: CO-ADD antibacterial assay, growth inhibition (OD600); assay type: cell-based, Escherichia coli; conditions: up to 32 μg/mL
Method: (§1) Dry compounds ranging from 1–2 mg were weighed into properly labeled Eppendorf tubes and sealed with parafilm. The compounds were used as received by the CO-ADD. For the screenings, most compounds were dissolved to a stock concentration of 10 mg/mL in DMSO. K2[Ti(Citrate)3], Na3Citrate, and K2[TiO(Oxalate)2] were dissolved in warm water. […] Samples were diluted in water to a final testing concentration of 32 µg/mL while keeping the final co-solvent concentration to a maximum of 0.5%. Where applicable, compounds were serially diluted 1:2 fold eight times. Each sample concentration was prepared in 384-well plates, non-binding surface plate (NBS; Corning 3640) for each bacterial/fungal strain, tissue-culture treated (TC-treated; Corning 3712/3764), black for mammalian cell types and polypropylene 384-well (PP; Corning 3657) for hemolysis assays, all in duplicate (n = 2), and keeping the final DMSO concentration to a maximum of 0.5%. All sample preparation was conducted using liquid handling robots.
(§2) For the bacterial assays, four Gram-negative bacteria (E. coli (ATCC 25922, Manassas, VA, USA); K. pneumoniae (ATCC 700603), A. baumannii; (ATCC 19606), and P. aeruginosa (ATCC 27853) and the Gram-positive bacteria (S. aureus MRSA (ATCC 43300) were used. Each strain was cultured in cation-adjusted Mueller Hinton broth (CAMHB; Bacto Laboratories 212322, Mount Pritchard, Australia) at 37 °C overnight. A sample of each culture was then diluted 40-fold in fresh CAMHB and incubated at 37 °C for 1.5–3 h. The resultant mid-log phase cultures were diluted with CAMHB (CFU/mL measured by OD600), then added to each well of the compound-containing plates (384-well non-binding surface (NBS) plates; Corning CLS3640, Millipore Sigma, Burlington, MA, USA), giving a cell density of 5 × 10^5 CFU/mL and a total volume of 50 µL. Plates were covered and incubated at 37 °C for 18 h without shaking. Inhibition of bacterial growth was determined by measuring absorbance at 600 nm (OD600) with a Tecan M1000 Pro monochromator plate reader, using media-only as negative control and bacteria without inhibitors as a positive control. […] Colistin sulfate (Sigma C4461) and vancomycin HCl (Sigma 861987) were used as internal controls on each plate for Gram-negative and Gram-positive bacteria, respectively.

[1] = test system: A. baumannii (ATCC 19606); assay: as above; assay type: cell-based, Acinetobacter baumannii; conditions: up to 32 μg/mL
Method: as §1, §2

[2] = test system: C. neoformans (ATCC 208821); assay: CO-ADD antifungal assay, growth inhibition (resazurin, OD600-570); assay type: cell-based, Cryptococcus neoformans; conditions: up to 32 μg/mL
Method: (§3) The compounds were used as received by the CO-ADD. For the screenings, most compounds were dissolved to a stock concentration of 10 mg/mL in DMSO. K2[Ti(Citrate)3], Na3Citrate, and K2[TiO(Oxalate)2] were dissolved in warm water. [Cu(Deferasirox)(H2O)]2 was dissolved in pyridine after its solubility was determined to be excellent in pyridine due to coordination of the solvent to the metal producing [Cu(Deferasirox)(pyridine)]2 in situ. […] Each sample concentration was prepared in 384-well plates, non-binding surface plate (NBS; Corning 3640) for each bacterial/fungal strain, tissue-culture treated (TC-treated; Corning 3712/3764), black for mammalian cell types and polypropylene 384-well (PP; […] All sample preparation was conducted using liquid handling robots. For the fungal assays, the fungi (C. albicans (ATCC 90028) and C. neoformans) (ATCC 208821) were used. Both fungi (yeast) strains were cultured for 3 days on Yeast Extract-Peptone Dextrose (YPD; Becton Dickinson 242720, Thermo Fisher Scientific, Waltham, MA, USA) agar at 30 °C. A yeast suspension of 1 × 10^6 to 5 × 10^6 CFU/mL (as determined by OD530) was prepared from five colonies from the agar plates, subsequently diluted with Yeast Nitrogen Base media (YNB; Becton Dickinson 233520, Thermo Fisher Scientific, Waltham, MA, USA), and added to each well of the compound-containing plates (384-well plates, NBS; Corning CLS3640) giving a final cell density of 2.5 × 10^3 CFU/mL and a total volume of 50 μL. Plates were covered and incubated at 35 °C for 36 h without shaking. […] Sigma R7017) and incubation at 35 °C for 2 h, using media-only as a negative control and fungi without inhibitors as a positive control. […] Fluconazole (Sigma F8929) was used as an internal control on each plate for both strains.

[3] = test system: S. aureus MRSA (ATCC 43300); assay: CO-ADD antibacterial assay, growth inhibition (OD600); assay type: cell-based, Staphylococcus aureus
Method: as §1, §2

[4] = test system: HEK293 ATCC CRL-1573 human embryonic kidney cells; assay: CO-ADD cytotoxicity assay (resazurin); assay type: cell-based; conditions: all concentrations examined (0.25-32 μg/mL), 20 h; CC50 could not be measured
Method: The compounds were used as received by the CO-ADD. For the screenings, most compounds were dissolved to a stock concentration of 10 mg/mL in DMSO. K2[Ti(Citrate)3], Na3Citrate, and K2[TiO(Oxalate)2] were dissolved in warm water. [Cu(Deferasirox)(H2O)]2 was dissolved in pyridine after its solubility was determined to be excellent in pyridine due to coordination of the solvent to the metal producing [Cu(Deferasirox)(pyridine)]2 in situ. […] Each sample concentration was prepared in 384-well plates, non-binding surface plate (NBS; Corning 3640) for each bacterial/fungal strain, tissue-culture treated (TC-treated; Corning 3712/3764), black for mammalian cell types and polypropylene 384-well (PP; […] All sample preparation was conducted using liquid handling robots. HEK293 ATCC CRL-1573 human embryonic kidney cells were counted manually in a Neubauer hemocytometer and added to compound-containing plates (384-well plates, tissue culture-treated (TC); […] Life Technologies 11995-073) with 10% FBS (GE SH30084.03).

[5] = test system: P. aeruginosa (ATCC 27853); assay: CO-ADD antibacterial assay, growth inhibition (OD600); assay type: cell-based, Pseudomonas aeruginosa; conditions: up to 32 μg/mL
Method: as §1, §2

[6] = test system: K. pneumoniae (ATCC 700603); assay: as above; assay type: cell-based, Klebsiella pneumoniae; conditions: up to 32 μg/mL
Method: as §1, §2

C. albicans (ATCC 90028) = assay: CO-ADD antifungal assay, growth inhibition (OD630); assay type: cell-based, Candida albicans; conditions: up to 32 μg/mL
Method: as §3

MRC-5 cells [7] = conditions: cited from earlier work
MRC-5 cells [8] = assay: MRC-5 cell viability, dose-response treatment, MTT assay; assay type: cell-based, human; conditions: MRC-5 cells, MTT, 72 h, pH 7.4, n = 6, this work
Method: A thawed stock of MRC-5 cells was washed with 1X PBS and resuspended in phenol red DMEM media (supplemented with 10% FBS and 1% of penicillin-streptomycin) and then seeded in a 100 mm × 20 mm (complete, O.D. x H) petri dish and grown in a 5% (v/v) CO2 humidified atmosphere at 37 °C. At least three passages were performed to ensure the integrity of the cells. After this point, cells were collected, thoroughly washed with 1X PBS, and then resuspended in phenol red-free DMEM (supplemented with 10% FBS, 1% Streptomycin/Penicillin, and 2.4 mM L-glutamine) at a 2.0 × 10^5 cells/mL concentration. Approximately 100 µL of the cell solution was seeded into wells of several 96-well plates to begin the MTT assay, which was performed in the 5% (v/v) CO2 humidified atmosphere at 37 °C. At least one lane of wells in each plate was supplied media without cells as a control. […] Most of the compounds were dissolved in 1X PBS buffer at pH 7.4. […] Titanocene dichloride was prepared as a fresh stock solution in DMSO and then diluted in 0.1 M NaCl (aq) instead of 1X PBS (to minimize hydrolysis induced precipitation) to the desired concentration while maintaining a constant 1% (v/v) DMSO background (0.5% DMSO after mixing with the well media). A control of cells treated with media containing 1% (v/v) DMSO was included in the study. The titanocene solutions were used within an hour of preparation in the final cell solution. […] At 3 h before a total of 72 h of incubation with the compounds, the cells were treated with 25 µL of 9 mg/mL MTT prepared in 1X PBS and sterile-filtered. Upon completion of the three hours, 50 µL of 10% (w/v) SDS (prepared in 0.1 M Tris buffer at pH 11) was added to solubilize the purple formazan product crystals and left overnight in the incubator. Control wells in the plates consisted of: (1) Untreated cells + MTT as the measure of 100% viable cell growth in the media and (2) Media with no cells + MTT as the measure of zero cells in the media. Two sets of compounds could be tested per plate. The plates were read at the wavelength of 570 nm (absorbance of the formazan product at pH 10.0) and 800 nm (background control) using a Tecan plate reader. The absorbance of all wells was compared to the absorbance of the untreated cells with the MTT set as the 100% viable cell standard and the absorbance of the zero cell control set as the 0% viable cell standard. […] Nonlinear regression in Origin 8.5 was utilized to fit the growth curves using the pharmacology dose–response equation to determine the half-maximal inhibitory concentration (IC50) and the corresponding standard deviation. All samples were tested six times.

[9] = predicted or measured MIC, ≥75% growth inhibition
[10] = predicted or measured MIC, ≥75% growth inhibition, 36 h
[11] = predicted or measured MIC, lowest concentration with ≥75% growth inhibition, 0.25-32 μg/mL, 18 h

Molecule | MIC E. coli (E. coli (ATCC 25922); [9]) [µg/mL] | Dmax E. coli, maximum % inhibition (E. coli (ATCC 25922)) [%] | MIC A. baumannii [1, 9] [µg/mL] | Dmax A. baumannii, maximum % inhibition [1] [%] | MIC C. neoformans [2, 10] [µg/mL] | Dmax C. neoformans, maximum % inhibition [2] [%] | MIC S. aureus (MRSA) [3, 11] [µg/mL] | Dmax S. aureus (MRSA), maximum % inhibition ([3]; up to 32 μg/mL) [%] | MIC P. aeruginosa [5, 9] [µg/mL] | Dmax P. aeruginosa, maximum % inhibition [5] [%] | MIC K. pneumoniae [6, 9] [µg/mL] | Dmax K. pneumoniae, maximum % inhibition [6] [%] | MIC C. albicans (C. albicans (ATCC 90028); [10]) [µg/mL] | Dmax C. albicans, maximum % inhibition (C. albicans (ATCC 90028)) [%] | also measured
4-[(3Z,5E)-3,5-Bis(6-oxocyclohexa-2,4-dien-1-ylidene)-1,2,4-triazolidin-1-yl] benzoic acid [Compound 4, reference compound] | >32 | 7.72 | >32 | 18.95 | >32 | −25.58 | >32 | 44.31 | >32 | 5.82 | >32 | 20.2 | >32 | 4.31 | antiproliferative effect against HEK293 (in words) [4]: inactive; IC50 ± SD (µM) (MRC-5 cells [7]): Proliferative Behavior; increase in the proliferation of MRC-5 cells (MRC-5 cells [7]): nearly three-fold increase
Oc1ccccc1-c1n[nH]c(-c2ccccc2O)n1 [Compound 3, 2-[3-(2-Hydroxyphenyl)-1H-1,2,4-triazol-5-yl]phenol, reference compound] | – | – | – | – | – | – | – | – | – | – | – | – | – | – | MIC (E. coli (ATCC 25922); Escherichia coli, ATCC25922, predicted or measured MIC, ≥75% growth inhibition): > 32 µg/mL; Dmax (E. coli (ATCC 25922); Escherichia coli, ATCC25922, read-out: Dmax E. coli, maximum % inhibition): -9.07%; MIC ([1]; Acinetobacter baumannii, ATCC19606, predicted or measured MIC, ≥75% growth inhibition): > 32 µg/mL; Dmax ([1]; Acinetobacter baumannii, ATCC19606, read-out: Dmax A. baumannii, maximum % inhibition): -1.93%; MIC ([2]; Cryptococcus neoformans, ATCC208821, predicted or measured MIC, ≥75% growth inhibition, 36 h): > 32 µg/mL; Dmax ([2]; Cryptococcus neoformans, ATCC208821, read-out: Dmax C. neoformans, maximum % inhibition): -7.23%; activity against MRSA (in words) ([3]; CO-ADD screen, 32 μg/mL): inactive; MIC ([3]; Staphylococcus aureus, predicted or measured MIC, lowest concentration with ≥75% growth inhibition, 0.25-32 μg/mL, 18 h): > 32 µg/mL; Dmax ([3]; Staphylococcus aureus, up to 32 μg/mL, read-out: Dmax S. aureus (MRSA), maximum % inhibition): -2.34%; MIC ([5]; Pseudomonas aeruginosa, ATCC27853, predicted or measured MIC, ≥75% growth inhibition): > 32 µg/mL; Dmax ([5]; Pseudomonas aeruginosa, ATCC27853, read-out: Dmax P. aeruginosa, maximum % inhibition): 10%; MIC ([6]; Klebsiella pneumoniae, ATCC700603, predicted or measured MIC, ≥75% growth inhibition): > 32 µg/mL; Dmax ([6]; Klebsiella pneumoniae, ATCC700603, read-out: Dmax K. pneumoniae, maximum % inhibition): 4.11%; MIC (C. albicans (ATCC 90028); Candida albicans, ATCC90028, predicted or measured MIC, ≥75% growth inhibition, 36 h): > 32 µg/mL; Dmax (C. albicans (ATCC 90028); Candida albicans, ATCC90028, read-out: Dmax C. albicans, maximum % inhibition): 6.23%; IC50 ± SD (µg/mL) (MRC-5 cells [7]): >>25.3 µg/mL; IC50 (MRC-5 cells [7]; read-out: IC50 ± SD): > 100 µM
K2[Ti(Citrate)3] [Compound 7] | >32 | 10.41 | >32 | 17.94 | >32 | −7.88 | >32 | 38.01 | >32 | 7.99 | >32 | 15.43 | >32 | 44.53 | IC50 ± SD (µg/mL) (MRC-5 cells [8]): >>73.2 µg/mL; IC50 (MRC-5 cells [8]; read-out: IC50 ± SD): > 100 µM
